# Measurements: PMC9742383, “From tryptamine to the discovery of efficient multi-target directed ligands against cholinesterase-associated neurodegenerative disorders” (Frontiers in Pharmacology, 2022)
# Where two headings read alike, the source gives them in different places.
# Legend:
# [1] = target: T1, BuChE (Equus caballus, UniProt P81908); assay: time-dependent Ellman assay, kobs analysis; parameters: gene BCHE; settings: read-out: kc; equilibrium constant of reversible step before carbamylation; covalent
# T1 sequence (P81908 whole entry): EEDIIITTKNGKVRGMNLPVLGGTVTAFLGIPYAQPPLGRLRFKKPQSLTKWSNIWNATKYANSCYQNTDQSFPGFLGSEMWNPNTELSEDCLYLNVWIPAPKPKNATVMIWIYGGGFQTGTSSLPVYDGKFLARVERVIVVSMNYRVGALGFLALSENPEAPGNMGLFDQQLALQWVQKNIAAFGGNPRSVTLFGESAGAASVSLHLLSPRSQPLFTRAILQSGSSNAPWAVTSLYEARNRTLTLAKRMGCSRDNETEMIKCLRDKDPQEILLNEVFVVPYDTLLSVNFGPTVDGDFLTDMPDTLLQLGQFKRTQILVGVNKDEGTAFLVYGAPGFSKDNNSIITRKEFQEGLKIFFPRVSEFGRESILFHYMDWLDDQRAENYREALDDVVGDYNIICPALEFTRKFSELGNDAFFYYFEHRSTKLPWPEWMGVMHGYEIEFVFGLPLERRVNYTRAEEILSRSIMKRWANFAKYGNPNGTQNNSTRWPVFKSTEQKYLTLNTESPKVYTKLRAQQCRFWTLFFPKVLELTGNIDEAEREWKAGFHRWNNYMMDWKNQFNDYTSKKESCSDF
# [2] = in vitro; parameters: MTT cytotoxicity, absorbance at 570 nm, HT-22 mouse hippocampal neuronal cells; settings: mouse, read-out: IC50 ± SD / HT-22 ^a
# Experimental: The cell lines present in this study were purchased from the China Center for Type Collection (CCTCC, China). For cytotoxicity assay, HT-22, BV2, SH-SY5Y, HepG2, and LO2 cells were incubated in 96-well plates at the density of 5 × 10³ per well. After incubation for 12 h at 37°C, the tested compounds with the required concentrations were added to the corresponding wells and continuously incubated for 24 h at 37°C. Then, the prepared MTT (3-[4,5-dimethyl-2-thiazolyl]-2,5-diphenyl-2H-tetrazolium bromide) solution was added to each well and co-incubated for another 4 h at 37°C. Then, the supernatant was removed, and 100 μl DMSO was added to each well. The OD value of each well was detected at 570 nm using a microplate reader (Bio-Rad Laboratories, CA, United States). The IC50 values were calculated using IBM SPSS Statistics 25.0 software. All experiments were performed in triplicate, and the results were shown as the mean ± SD. In order to explore the applicability of the synthesized CTDs in neurological diseases, the neuronal cytotoxicity of the synthesized compounds was evaluated on mouse hippocampal neuronal cell line HT-22. […] In view of these CTDs endowed strong inhibition efficacy on BuChE, we preliminarily evaluated their safety range by comparing their IC50 values on cytotoxicity and BuChE inhibitory activity. […] Therefore, the series of compounds with dibenzyl groups, especially compounds bearing ring carbon alkyl chains (2f-2h) and tertiary amine residues (2j-2u) with little cytotoxicity on HT-22, can be considered as potential lead building blocks for further structure optimization to develop novel effective agents against neurological diseases.
# [3] = target: T2, AChE (Electrophorus electricus, UniProt O42275); assay: Ellman colorimetric assay; assay type: biochemical
# T2 construct: native enzyme, Type V-S lyophilized powder, Sigma-Aldrich
# T2 sequence (O42275 24-633): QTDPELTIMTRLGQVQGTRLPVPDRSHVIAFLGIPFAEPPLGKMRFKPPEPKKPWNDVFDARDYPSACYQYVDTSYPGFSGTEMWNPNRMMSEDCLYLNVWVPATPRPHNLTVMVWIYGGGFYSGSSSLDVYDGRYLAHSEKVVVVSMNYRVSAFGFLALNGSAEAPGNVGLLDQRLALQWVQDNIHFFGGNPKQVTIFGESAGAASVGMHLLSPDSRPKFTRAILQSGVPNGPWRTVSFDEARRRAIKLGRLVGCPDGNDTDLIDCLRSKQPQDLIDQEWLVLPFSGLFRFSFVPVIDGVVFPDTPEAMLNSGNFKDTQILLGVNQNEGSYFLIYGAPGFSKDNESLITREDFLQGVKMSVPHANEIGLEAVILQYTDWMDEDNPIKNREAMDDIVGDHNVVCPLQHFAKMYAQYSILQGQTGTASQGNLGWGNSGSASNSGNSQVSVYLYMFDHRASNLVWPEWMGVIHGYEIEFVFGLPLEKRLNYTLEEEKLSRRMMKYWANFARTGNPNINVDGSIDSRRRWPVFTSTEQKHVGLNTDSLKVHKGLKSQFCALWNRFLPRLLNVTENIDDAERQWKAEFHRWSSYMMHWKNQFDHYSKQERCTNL
# [4] = target: T1, BuChE; assay: Ellman colorimetric assay; assay type: biochemical; parameters: gene BCHE; native enzyme from equine serum, purchased from Sigma-Aldrich
# [5] = in vitro; parameters: species or system LO2, HepG2; MTT cytotoxicity, absorbance at 570 nm; settings: human, sh-sy5y; read-out: ^a IC50 ± SD (μM) / SH-SY5Y
# Experimental: (§1) The cell lines present in this study were purchased from the China Center for Type Collection (CCTCC, China). For cytotoxicity assay, HT-22, BV2, SH-SY5Y, HepG2, and LO2 cells were incubated in 96-well plates at the density of 5 × 10³ per well. After incubation for 12 h at 37°C, the tested compounds with the required concentrations were added to the corresponding wells and continuously incubated for 24 h at 37°C. Then, the prepared MTT (3-[4,5-dimethyl-2-thiazolyl]-2,5-diphenyl-2H-tetrazolium bromide) solution was added to each well and co-incubated for another 4 h at 37°C. Then, the supernatant was removed, and 100 μl DMSO was added to each well. The OD value of each well was detected at 570 nm using a microplate reader (Bio-Rad Laboratories, CA, United States). The IC50 values were calculated using IBM SPSS Statistics 25.0 software. All experiments were performed in triplicate, and the results were shown as the mean ± SD. In order to further evaluate the applicability of the compounds with dibenzyl groups for neurological diseases, we also tested the cytotoxicity of the selected compounds (2f, 2h, 2j, 2m, 2o-2r, 2t, and 2u) bearing little toxicity on HT-22 cells, microglia cell line BV2, and human neuroblastoma cell line SH-SY5Y, which are widely used in the study of neurological diseases. […] In view of some carbamate-based ChE inhibitors reported to be hepatotoxic, we further performed the preliminary evaluation of the hepatotoxicity of the selected compounds on human normal liver cell line LO2 and human hepatocellular carcinoma cell line HepG2.
# [6] = in vitro; parameters: species or system SH-SY5Y, LO2; MTT cytotoxicity, absorbance at 570 nm; settings: human, read-out: ^a IC50 ± SD (μM) / HepG2
# Experimental: as §1
# [7] = in vitro; parameters: species or system SH-SY5Y, HepG2; MTT cytotoxicity, absorbance at 570 nm; settings: human, lo2 cells; read-out: ^a IC50 ± SD (μM) / LO2
# Experimental: as §1
# [8] = ht-22 hippocampal neuronal cells
# [9] = read-out: IC50 ± SD ^a / AChE ^a
# [10] = read-out: IC50 ± SD ^a / BuChE ^a
SMILES,KI (inactivation) [1],CC50 at 24 h ([2]; ht-22),IC50 ([3]; read-out: IC50 ± SD / AChE ^a),IC50 ([4]; read-out: IC50 ± SD / BuChE ^a),"CC50 at 24 h [2, 8]","IC50 [3, 9]","IC50 [4, 10]",CC50 at 24 h [5],CC50 at 24 h ([6]; hepg2 cells),CC50 at 24 h [7],"IC50 ([3]; ATCI substrate, […] min preincubation […] °C, pH […], read-out: IC50 ± SD ^a / AChE ^a)","IC50 ([4]; BTCI substrate, […] min preincubation […] °C, pH […], pseudo-irreversible carbamate, covalent, read-out: IC50 ± SD ^a / BuChE ^a)",CC50 at 24 h ([6]; hepg2)
"O=C(NC1CC1)Oc1ccc2[nH]cc(CCN(Cc3ccccc3)Cc3ccccc3)c2c1 [2f, 3-(2-(dibenzylamino)ethyl)-1H-indol-5-yl cyclopropylcarbamate]",1.59 nM,60.2 ± 3.85 µM,> 100 µM,8.75 ± 0.23 nM,–,–,–,–,–,–,–,–,–
"CCCCCNC(=O)Oc1ccc2[nH]cc(CCNCc3ccccc3)c2c1 [3c, 3-(2-(benzylamino)ethyl)-1H-indol-5-yl pentylcarbamate]",73.7 nM,–,–,–,10.6 ± 0.24 µM,1.13 µM,23.9 ± 2.9 nM,–,–,–,–,–,–
"CN(C(=O)Oc1ccc2[nH]cc(CCN(Cc3ccccc3)Cc3ccccc3)c2c1)c1ccccc1 [2p, 3-(2-(dibenzylamino)ethyl)-1H-indol-5-yl methyl(phenyl)carbamate]",–,> 100 µM,> 100 µM,18.9 ± 1.34 nM,–,–,–,> 100 µM,> 100 µM,> 100 µM,–,–,–
"CCCCCCCNC(=O)Oc1ccc2[nH]cc(CCN)c2c1 [4e, 3-(2-aminoethyl)-1H-indol-5-yl heptylcarbamate]",3.02 nM,–,–,–,26.1 ± 2.29 µM,–,–,–,–,–,> 100 µM,10.1 ± 0.83 nM,–
"O=C(NC1CC1)Oc1ccc2[nH]cc(CCNCc3ccccc3)c2c1 [3f, 3-(2-(benzylamino)ethyl)-1H-indol-5-yl cyclopropylcarbamate]",5.76 nM,–,–,–,15 ± 1.17 µM,3.17 µM,15.7 ± 1.3 nM,–,–,–,–,–,–
"O=C(Oc1ccc2[nH]cc(CCN(Cc3ccccc3)Cc3ccccc3)c2c1)N1CCOCC1 [2u, 3-(2-(dibenzylamino)ethyl)-1H-indol-5-yl morpholine-4-carboxylate]",–,78.7 ± 3.79 µM,> 100 µM,114 ± 1.45 nM,–,–,–,> 100 µM,–,> 100 µM,–,–,> 100 µM
"CCCCCNC(=O)Oc1ccc2[nH]cc(CCN(Cc3ccccc3)Cc3ccccc3)c2c1 [2c, 3-(2-(dibenzylamino)ethyl)-1H-indol-5-yl pentylcarbamate]",7.05 nM,37.47 ± 0.23 µM,> 100 µM,2.1 ± 0.14 nM,–,–,–,–,–,–,–,–,–
"O=C(NC1CCCCC1)Oc1ccc2[nH]cc(CCN(Cc3ccccc3)Cc3ccccc3)c2c1 [2h, 3-(2-(dibenzylamino)ethyl)-1H-indol-5-yl cyclohexylcarbamate]",–,74.2 ± 1.5 µM,> 100 µM,16 ± 0.32 nM,–,–,–,> 100 µM,–,> 100 µM,–,–,–
"O=C(Oc1ccc2[nH]cc(CCN(Cc3ccccc3)Cc3ccccc3)c2c1)N1CCC1 [2q, 3-(2-(dibenzylamino)ethyl)-1H-indol-5-yl azetidine-1-carboxylate]",–,86.5 ± 1.82 µM,0.742 ± 0.00987 µM,1.65 ± 0.03 nM,–,–,–,–,> 100 µM,–,–,–,–
"CCCCN(CCCC)C(=O)Oc1ccc2[nH]cc(CCN(Cc3ccccc3)Cc3ccccc3)c2c1 [2m, 3-(2-(dibenzylamino)ethyl)-1H-indol-5-yl dibutylcarbamate]",–,65.28 ± 0.09 µM,> 100 µM,13.8 ± 0.67 nM,–,–,–,> 100 µM,–,> 100 µM,–,–,> 100 µM
"O=C(Oc1ccc2[nH]cc(CCNCc3ccccc3)c2c1)N1CCCCC1 [3s, 3-(2-(benzylamino)ethyl)-1H-indol-5-yl piperidine-1-carboxylate]",5.08 nM,–,–,–,13.8 ± 0.91 µM,9.08 µM,33.9 ± 2.14 nM,–,–,–,–,–,–
"O=C(Oc1ccc2[nH]cc(CCN(Cc3ccccc3)Cc3ccccc3)c2c1)N1CCCC1 [2r, 3-(2-(dibenzylamino)ethyl)-1H-indol-5-yl pyrrolidine-1-carboxylate]",–,79.8 ± 5.36 µM,> 100 µM,20.5 ± 1.7 nM,–,–,–,> 100 µM,–,> 100 µM,–,–,> 100 µM
"O=C(Oc1ccc2[nH]cc(CCN(Cc3ccccc3)Cc3ccccc3)c2c1)N1CCCCCC1 [2t, 3-(2-(dibenzylamino)ethyl)-1H-indol-5-yl azepane-1-carboxylate]",–,> 100 µM,> 100 µM,68 ± 8.42 nM,–,–,–,–,–,> 100 µM,–,–,> 100 µM
CCN(C)C(=O)Oc1cccc([C@H](C)N(C)C)c1 [rivastigmine],55.9 nM,–,–,–,–,–,–,> 100 µM,–,> 100 µM,–,–,> 100 µM
"CN(C)C(=O)Oc1ccc2[nH]cc(CCN(Cc3ccccc3)Cc3ccccc3)c2c1 [2j, 3-(2-(dibenzylamino)ethyl)-1H-indol-5-yl dimethylcarbamate]",–,> 100 µM,> 100 µM,6.77 ± 0.27 nM,–,–,–,> 100 µM,–,> 100 µM,–,–,> 100 µM
"CCCCCCCNC(=O)Oc1ccc2[nH]cc(CCN(Cc3ccccc3)Cc3ccccc3)c2c1 [2e, 3-(2-(dibenzylamino)ethyl)-1H-indol-5-yl heptylcarbamate]",2.55 nM,35.6 ± 2.45 µM,> 100 µM,1.42 ± 0.004 nM,–,–,–,–,–,–,–,–,–
